From US11491089B2, “Reloadable microcapsules” (International Flavors & Fragrances Inc., priority 2016, dated 2022)

Experiment: Hansen solubility parameters of the core solvents
Type: physicochemical
Source text: The term “Hansen solubility parameter” refers to a solubility parameter approach proposed by Charles Hansen used to predict polymer solubility and was developed around the basis that the total energy of vaporization of a liquid consists of several individual parts. To calculate the “weighted Hansen solubility parameter” one must combine the effects of (atomic) dispersion forces, (molecular) permanent dipole-permanent dipole forces, and (molecular) hydrogen bonding (electron exchange). The “weighted Hansen solubility parameter” is calculated as (δD^2+δP^2+δH^2)^0.5, wherein δD is the Hansen dispersion value, δP is the Hansen polarizability value, and δH is the Hansen Hydrogen-bonding (“h-bonding”) value.

δD (Hansen dispersion value)	δH (Hansen h-bonding value)	δP (Hansen polar (dipole-dipole) value)	SMILES
16	2.7	2.1	CCCCCCCCCCCCCC(=O)OC(C)C [isopropyl myristate]
16.4	9.6	5.7	CC(=O)OCC(COC(C)=O)OC(C)=O [triacetin]
